Source: PubChem BioAssay (NCI)
Values joined by “and” are separate entries in the source; they are usually repeats but may differ in a detail not shown here. Equal entries are not always repeated.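 Cultured in 96-well plates, cells were exposed to test compound for 48 hours across five concentrations. Abbreviation: GI50, concentration required for 50% inhibition of growth. TGI denotes the concentration required for complete inhibition of growth.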

Assays:
Experiment in all cases: inhibition of tumour cell growth, NCI panel, 48 h
CCRF-CEM leukemia = system: CCRF-CEM leukemia
A549 NSCLC = system: A549 NSCLC
SN12C renal = system: SN12C renal
BT-549 breast = system: BT-549 breast
SF-539 CNS = system: SF-539 CNS
K-562 leukemia = system: K-562 leukemia
SF-268 CNS = system: SF-268 CNS
SF-295 CNS = system: SF-295 CNS
HL-60(TB) leukemia = system: HL-60(TB) leukemia
HOP-92 NSCLC = system: HOP-92 NSCLC

Compound | GI50 (CCRF-CEM leukemia) | TGI (CCRF-CEM leukemia) [µM] | GI50 (A549 NSCLC) | TGI (A549 NSCLC) [µM] | GI50 (SN12C renal) | TGI (SN12C renal) [µM] | GI50 (BT-549 breast) | TGI (BT-549 breast) [µM] | GI50 (SF-539 CNS) | TGI (SF-539 CNS) [µM] | GI50 (K-562 leukemia) | TGI (K-562 leukemia) [µM] | GI50 (SF-268 CNS) | TGI (SF-268 CNS) [µM] | GI50 (SF-295 CNS) | TGI (SF-295 CNS) [µM] | GI50 (HL-60(TB) leukemia) | TGI (HL-60(TB) leukemia) [µM] | GI50 (HOP-92 NSCLC) | TGI (HOP-92 NSCLC)
Fc1cccc(-c2nc(-c3c[nH]c4ncccc34)cs2)c1 | > 100 µM | > 100 | 17.7 µM | > 100 | > 100 µM | > 100 | 44.8 µM | > 100 | 70 µM | > 100 | > 100 µM | > 100 | 38.2 µM | > 100 | 36.8 µM | > 100 | > 100 µM | > 100 | 0.128 µM | 18.6 µM
O=C1Nc2cc(-c3ccc(O)cc3)ccc2/C1=C/c1ccc[nH]1 | 0.154 µM | > 100 | 0.484 µM | > 100 | 0.609 µM | > 100 | 0.396 µM | 13.3 | 0.246 µM | 1.53 | 0.0335 µM | > 75.9 | 0.44 µM | > 100 | 0.266 µM | > 40.5 | 0.228 µM |  | 1.14 µM | 5.12 µM
CN1CCN(c2ccc(NC(=O)c3cncnc3Nc3ccc4c(ccn4Cc4cccc(F)c4)c3)cc2)CC1 | 0.901 µM | 2.66 | 2.15 µM | 6.59 | 3.83 µM | 8.15 | 5.23 µM | 9.78 | 1.35 µM | 5.54 | 0.55 µM | 1.2 | 4.3 µM | 9.17 | 5.41 µM | 10.5 | 0.673 µM | 1.4 | 3.54 µM | 8.42 µM
NC1=C(/C(N)=N/O)C(c2ccccc2)c2ccc3ccccc3c2O1 (stereo unspecified) | 0.388 µM | > 62.8 | 0.617 µM | > 100 | 0.603 µM | 31 | 1.11 µM | 69.6 | 0.242 µM | 0.885 | 0.145 µM | > 100 | 1.09 µM | > 72.6 | 0.321 µM | 7.06 | 0.275 µM | 0.788 | 0.579 µM | > 73.1 µM
COC(=O)C1OC(SCCN)C(O)C(O)C1O (stereo unspecified) |  | > 100 |  | > 100 |  | > 100 |  | > 100 |  | > 100 |  | > 100 |  | > 100 |  | > 100 |  | > 100 |  | > 100 µM
COc1cc2c3c(n(CCCN=[N+]=[N-])c(=O)c2cc1OC)-c1ccc(NC(C)=O)cc1C3=O | > 50 µM | > 50 | > 50 µM | > 50 | > 50 µM | > 50 | > 50 µM | > 50 | > 50 µM | > 50 | > 50 µM | > 50 | > 50 µM | > 50 | 8.96 µM | > 50 | 15 µM | > 50 | > 50 µM | > 50 µM
Nc1nc(N)c2cc(S(=O)(=O)c3ccccc3)ccc2n1 | 2.93 µM | > 100 | 0.622 µM | > 100 | 3.21 µM | > 100 | 6.59 µM | 92.3 | 2.05 µM | > 100 | 0.339 µM | > 100 | 3.13 µM | > 100 | 0.792 µM | 51.9 | 1.64 µM | 31.5 | 4.64 µM | 72.8 µM
COC(=O)C(Br)(C(=O)OC)C(Br)C(Br)C(Br)c1ccccc1 (stereo unspecified) | 2 µM | 7.21 | 16.9 µM | 33 | 2.16 µM | 5.3 | 12.4 µM | 25.3 | 1.81 µM | 4.09 | 2.95 µM | 9.93 | 5.5 µM | 16.5 | 17 µM | 33.3 | 2.09 µM | 6.03 | 3.42 µM | 12.3 µM
CN1CCC(n2cnc(-c3ccc(F)cc3)c2-c2ccnc(Nc3ccccc3)n2)CC1 | 12.1 µM | > 25 | 2.81 µM | > 25 | 7.09 µM | > 25 | 10.4 µM | > 25 | 13.2 µM | > 25 | 5.94 µM | > 25 | 9.91 µM | > 25 | > 19.2 µM | > 25 | 9.65 µM | > 23.2 | 5.18 µM | 24.6 µM
N#CC1=C(N)Oc2c(ccc3cccnc23)C1c1ccccc1 (stereo unspecified) |  | 13.4 |  | > 100 |  | > 100 | 1.73 µM | 23.6 |  | 4.87 |  | > 100 |  | > 100 |  | > 21.9 |  | 2.07 |  | > 83.4 µM
O=C(Oc1c(Cl)c(Cl)c(Cl)c(Cl)c1Cl)C1CCCN1C(=O)OCc1ccccc1 (stereo unspecified) | 3.01 µM | 14.3 | 3.97 µM | 18.2 | 3.24 µM | 12.5 | 3.75 µM | 13.1 | 2.63 µM | 9.56 | 3.43 µM | 19.3 | 4 µM | 15.6 | 2.75 µM | 8.47 | 2.42 µM | 6.09 | 1.99 µM | 6.1 µM
C#CCn1c2c(c3ccccc3c1=O)C(=O)c1ccccc1-2 |  | > 100 |  | 57.3 |  | 81.6 |  | > 100 |  | 24.2 |  | > 100 |  | 34.1 |  | 94.3 |  | 10.2 |  | > 100 µM
N#Cc1cc2c(=S)[nH]c(=S)[nH]c2nc1SCc1ccccc1 | 33.1 µM | > 100 | 32.3 µM | > 100 | 22.7 µM | > 100 | 47.2 µM | > 100 | 57.1 µM | > 100 | 36.9 µM | > 100 | 30.6 µM | > 100 | 46.8 µM | > 100 | 30.4 µM | 77.4 | 30.1 µM | > 100 µM
C=C(C)[C@@H]1CC[C@]2(COC(=O)c3ccccc3C(=O)O)CC[C@]3(C)[C@H](CC[C@@H]4[C@@]5(C)CC[C@H](OC(=O)c6ccccc6C(=O)O)C(C)(C)[C@@H]5CC[C@]43C)[C@@H]12 | 30.5 µM | > 100 | 29.8 µM | > 100 | 60.8 µM | > 100 | 33.3 µM | > 100 | 36.3 µM | > 100 | 31.7 µM | > 100 | 26.6 µM | > 100 | 24.1 µM | > 100 | > 100 µM | > 100 | 19.6 µM | 64.5 µM
NC(=O)/C=C/c1c[nH]c2nccnc12 |  | 7.4 |  | > 100 |  | 11.4 |  | 8.09 |  | 6.15 |  | > 18 |  | > 21.9 |  | 28.9 |  | > 38.7 |  | > 28.8 µM
COc1ccc(-n2nc(C(=O)NCC(=O)Nc3nc4cc(OC)ccc4s3)c3ccccc3c2=O)cc1 | > 100 µM | > 100 | 0.349 µM | 1.51 | 3.45 µM | > 40.7 | 3.04 µM | 25.9 | 0.407 µM | 1.27 | > 37.7 µM | > 100 | 0.949 µM | 5.01 | 0.346 µM | 1.62 | > 100 µM | > 100 | 0.572 µM | 1.68 µM
O=C(Cc1ccc(-c2ccc(OCCN3CCOCC3)cc2)cn1)NCc1ccccc1 | 0.0397 µM and 0.0433 µM | > 100 | 0.0405 µM and 0.0537 µM | > 100 | 0.0845 µM and 0.0611 µM | > 100 | 0.159 µM and 0.0767 µM |  | 0.0283 µM and 0.0301 µM |  | 0.0255 µM and 0.0264 µM | > 100 | 0.083 µM and 0.332 µM | > 100 | 0.0296 µM and 0.0347 µM | > 100 | 0.0294 µM and 0.0309 µM |  | 0.0543 µM and 0.353 µM | 8.59 µM and > 7.16 µM
CCN1C(=O)N[C@H]2[C@@H]3NC(=O)c4ccc(Cl)n4[C@@H]3C[C@]21O | 0.224 µM | 1.25 | 1.74 µM | 17.6 | 0.42 µM | 9.13 | 0.41 µM | 4.29 | 0.369 µM | 2.57 | 0.363 µM | 5.09 | 0.502 µM | 52.3 | 1 µM | 4.93 | 0.242 µM | 0.634 | 1.04 µM | 7.69 µM
COc1cc(NC(=O)c2cc3ccccc3cc2O)c(OC)cc1Cl | 2.61 µM | > 20.5 | 2.46 µM | 7.47 | 1.87 µM | 6.36 | 1.65 µM | 5.05 | 2.31 µM | 7.15 | 1.84 µM |  | 3.42 µM | 14.4 | 1.8 µM | 4.54 | 1.32 µM | 15.3 | 1.56 µM | 4.95 µM
Nc1ccccc1-n1c2c(c3ccccc3c1=O)C(=O)c1ccccc1-2 |  | > 100 |  | > 100 |  | > 100 |  | 12.9 |  | 26.8 |  | > 100 |  | 48.2 |  | 40.1 |  | 41.6 |  | 53.6 µM
CCN(CC)CCC(CNc1c(C)cnc2cc(Cl)ccc12)c1ccc(Cl)c(Cl)c1 (stereo unspecified) | 2.81 µM | 9.31 | 8.21 µM | 22 | 7.67 µM | 23.7 | 8.2 µM | 21.3 | 1.77 µM | 3.52 | 1.2 µM | 3.51 | 8.3 µM | 23.8 | 1.67 µM | 3.75 | 2.13 µM | 5.12 | 1.96 µM | 8.03 µM
